TGI and GI50 data for 15 molecules are collected here from PubChem BioAssay (NCI).

Among the test systems are HOP-62 NSCLC; NCI-H522 lung; OVCAR-4 ovarian; UO-31 renal; MOLT-4 leukemia; SF-268 CNS; NCI-H460 lung; A549 NSCLC; 786-0 renal; SK-OV-3 ovarian.
Holding throughout (assay): NCI tumour cell line growth inhibition, 48 h

“And” between values parts separate entries of the source, which are not always exact repeats. Equal entries are not always repeated.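 The compound was tested at five concentrations on cells cultured in 96-well plates, with a 48-hour exposure period. At the GI50, growth is halved. TGI denotes the concentration required for complete inhibition of growth.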

As to `CCOC(=O)[C@H]1Nc2ccc(OC)cc2C2c3ccccc3CC21` (stereo partly drawn), the TGI in the test with HOP-62 NSCLC, with NCI-H522 lung, with OVCAR-4 ovarian, in the test on UO-31 renal, with MOLT-4 leukemia and in the test with SF-268 CNS was above 100 µM throughout. Also, the TGI with NCI-H460 lung, with A549 NSCLC and in the test with 786-0 renal was above 100 µM each time.

For the molecule `COC1CC(OC(=O)c2ccccc2)C(OC(=O)c2ccccc2)C(C)O1` (stereo not drawn), the TGI in the test with HOP-62 NSCLC, with NCI-H522 lung, in the test on UO-31 renal, in the test with MOLT-4 leukemia, in the test with SK-OV-3 ovarian and in the test on SF-268 CNS was above 100 µM each time. The TGI in the test with NCI-H460 lung, in the test on A549 NSCLC and in the test on 786-0 renal was above 100 µM throughout.

Consider `OCC1OC(n2cnc3c(/C=C(/O)c4ccccc4)ncnc32)C(O)C1O` (stereo not drawn), for which the TGI in the test on HOP-62 NSCLC is above 100 µM; in the test on NCI-H522 lung it was 43.1 µM; in the test with OVCAR-4 ovarian it was above 88.1 µM; in the test with UO-31 renal, above 35.7 µM; in the test with MOLT-4 leukemia, above 100 µM; with SF-268 CNS it was above 100 µM. Also, the results for the TGI in the test on NCI-H460 lung, in the test on A549 NSCLC and in the test on 786-0 renal were 7.56 µM, above 100 µM and above 100 µM, respectively.

On to `CCOC(=O)C(/C=N\C(=S)Nc1ccc(OCC)cc1)=C(/O)c1ccccc1`, for which the TGI in the test with HOP-62 NSCLC, in the test with NCI-H522 lung, in the test with OVCAR-4 ovarian, with MOLT-4 leukemia, in the test on SK-OV-3 ovarian and with SF-268 CNS was above 100 µM in each case. Also, the TGI in the test with NCI-H460 lung, with A549 NSCLC and in the test on 786-0 renal was above 100 µM each time.

In the case of `Cc1cc(N/N=C/c2nc(-c3ccc(Cl)cc3)oc2C)c2cc(Cl)ccc2n1`, the GI50 is 1920 nM with HOP-62 NSCLC; 1890 nM in the test with NCI-H522 lung; 1680 nM with OVCAR-4 ovarian; 12.6 µM in the test with UO-31 renal; 2340 nM in the test on MOLT-4 leukemia; 3.54 µM with SK-OV-3 ovarian. Further, the GI50 was 3.15 µM in the test with SF-268 CNS, 1760 nM in the test with A549 NSCLC and 1.55 µM with 786-0 renal. The TGI was determined as 3.76 µM with HOP-62 NSCLC; 4.27 µM in the test with NCI-H522 lung; 3.33 µM in the test with OVCAR-4 ovarian; 25.2 µM with UO-31 renal; 9.11 µM with MOLT-4 leukemia; 12.8 µM with SK-OV-3 ovarian. Also, the TGI was 11.2 µM with SF-268 CNS, 3.6 µM in the test on A549 NSCLC and 2.99 µM in the test on 786-0 renal.

In the case of `Cc1ccc(SC(=O)N2C(=S)NC(=NC3CCCCC3)C23CCCCC3)cc1`, the TGI in the test on HOP-62 NSCLC, in the test on NCI-H522 lung, in the test with OVCAR-4 ovarian, in the test with UO-31 renal, with SK-OV-3 ovarian and in the test with SF-268 CNS was above 100 µM each time. Further, the TGI in the test on NCI-H460 lung, in the test on A549 NSCLC and in the test with 786-0 renal was above 100 µM each time.

Consider `Cc1cc2c(=O)c3ccccc3[nH]c2c(C(=O)O)c1C`, for which the TGI is above 100 µM in the test on HOP-62 NSCLC; above 100 µM in the test with OVCAR-4 ovarian; 87.5 µM in the test with UO-31 renal; above 100 µM in the test with MOLT-4 leukemia; above 100 µM with NCI-H460 lung; above 100 µM in the test with A549 NSCLC. Also, the TGI in the test with 786-0 renal was above 100 µM.

Regarding `c1cc(CNC2C3CCC(C3)C2c2c[nH]c3ccccc23)cc(CNC2C3CCC(C3)C2c2c[nH]c3ccccc23)c1` (stereo not drawn), the TGI in the test on NCI-H522 lung is 2.76 µM; in the test on OVCAR-4 ovarian it was 3.24 µM and 3.34 µM; in the test with MOLT-4 leukemia, 3.38 µM; with NCI-H460 lung it was above 100 µM; in the test on A549 NSCLC, above 100 µM; in the test with 786-0 renal, 27.3 µM. Moreover, the GI50 was 1070 nM with MOLT-4 leukemia, 313 nM in the test with NCI-H460 lung and 14.2 µM in the test with 786-0 renal.

Turning to `O=C1CCC(O)=C1O`, the TGI with HOP-62 NSCLC, in the test on NCI-H522 lung, in the test on OVCAR-4 ovarian, in the test on MOLT-4 leukemia, in the test with SK-OV-3 ovarian and in the test with SF-268 CNS was above 100 µM each time. Also, the TGI in the test on NCI-H460 lung, in the test on A549 NSCLC and in the test on 786-0 renal was above 100 µM each time.

Take `Cc1cc(=O)oc2cc(O)c(CN(C)CC(=O)O)cc12`: the TGI in the test on NCI-H522 lung, in the test with OVCAR-4 ovarian, with UO-31 renal, in the test with SF-268 CNS, in the test on NCI-H460 lung and with A549 NSCLC was above 100 µM in each case. The molecule further showed a TGI in the test on 786-0 renal above 100 µM.

Consider `CC(=O)OC1[C@H]2c3cc4c(cc3CN3CCC(=C[C@@H]1O)C23)OCO4` (stereo partly drawn), for which the TGI in the test on HOP-62 NSCLC, in the test with NCI-H522 lung, in the test with UO-31 renal, with MOLT-4 leukemia, in the test on SK-OV-3 ovarian and with SF-268 CNS was above 100 µM throughout. Also, the TGI in the test on NCI-H460 lung, in the test on A549 NSCLC and in the test with 786-0 renal was above 100 µM throughout.

With `COC(=O)c1nc(N)[nH]c(=O)c1CCCCCc1c(C(=O)OC)nc(N)[nH]c1=O`, the TGI with HOP-62 NSCLC, with NCI-H522 lung, in the test with OVCAR-4 ovarian, in the test on UO-31 renal, with SK-OV-3 ovarian and with SF-268 CNS was above 50 µM in each case. In addition, the TGI in the test with NCI-H460 lung, in the test on A549 NSCLC and in the test with 786-0 renal was above 50 µM in each case.

Regarding `COC(=O)c1c(-c2ccccc2)sc(-c2cccc3ccccc23)c1C(=O)OC`, the TGI in the test with NCI-H522 lung, in the test on OVCAR-4 ovarian, in the test on UO-31 renal, with MOLT-4 leukemia, in the test with SK-OV-3 ovarian and in the test on SF-268 CNS was above 100 µM each time. Also, the TGI with NCI-H460 lung, in the test on A549 NSCLC and with 786-0 renal was above 100 µM in each case.

In the case of `S=c1nc(-c2cccnc2)[nH][nH]1`, the TGI is above 100 µM in the test on HOP-62 NSCLC; above 1 µM in the test on NCI-H522 lung; above 1 µM in the test on OVCAR-4 ovarian; above 100 µM with SK-OV-3 ovarian; above 100 µM in the test with SF-268 CNS; above 100 µM in the test on NCI-H460 lung. For the same molecule, the TGI in the test on A549 NSCLC and in the test with 786-0 renal was above 100 µM in each case.

`BrC1(Br)C2/C=C\CCCCC21` (stereo not drawn): the TGI with HOP-62 NSCLC, with NCI-H522 lung, in the test with OVCAR-4 ovarian, in the test with MOLT-4 leukemia, with SF-268 CNS and in the test with NCI-H460 lung was above 100 µM each time. For the same molecule, the TGI with A549 NSCLC and with 786-0 renal was above 100 µM each time.
